The target of one experiment is T1, IRAK1 (Homo sapiens, UniProt P51617).
T1 construct: His-TEV-IRAK1 (194-712); His (N); TEV cleavage site (N)
Put plainly: IRAK1 enzymatic assay (ADP-Glo luminescence). Format: biochemical. The note with it: purified human recombinant His-TEV-IRAK1 (194-712). As for the experimental part: IRAK1 is a human purified recombinant enzyme (His-TEV-IRAK1 (194-712))
In this assay, IRAK1 hydrolyses ATP and autophosphorylates. Measurement of IRAK-1 inhibition is performed in 384-well format based on luminescence assay (ADP-Glo™ Kinase Assay from Promega). Purified human recombinant IRAK1 (0.3 μg/ml) and serial diluted compounds in DMSO (range of concentration from 10 μM to 0.5 nM) or controls (1% DMSO) are incubated for 15 minutes at RT in assay buffer containing 50 mM Hepes pH 7.0, Fatty acid-free BSA 0.1%, Dithiothreitol (DTT) 2 mM, MgCl2 10 mM, EGTA 0.5 mM, Triton X-100 0.01%. The kinase reaction is then initiated by the addition of ATP […] After 2 hours of incubation at RT, the reaction is stopped and the unconsumed ATP depleted by the addition of ADP-Glo™ Reagent according to supplier instructions. After 40 minutes of incubation at RT, the Kinase Detection Reagent is then added to the assay plate according to supplier instructions. After 20 minutes of incubation at RT, the luminescence signal is measured with a luminometer (PerkinElmer Envision or equivalent reader).

A further experiment concerns the target T2, IRAK4 (Homo sapiens, UniProt Q9NWZ3).
T2 construct: His-TEV-IRAK4 (1-460); His (N); TEV cleavage site (N)
T2 sequence (Q9NWZ3 1-460): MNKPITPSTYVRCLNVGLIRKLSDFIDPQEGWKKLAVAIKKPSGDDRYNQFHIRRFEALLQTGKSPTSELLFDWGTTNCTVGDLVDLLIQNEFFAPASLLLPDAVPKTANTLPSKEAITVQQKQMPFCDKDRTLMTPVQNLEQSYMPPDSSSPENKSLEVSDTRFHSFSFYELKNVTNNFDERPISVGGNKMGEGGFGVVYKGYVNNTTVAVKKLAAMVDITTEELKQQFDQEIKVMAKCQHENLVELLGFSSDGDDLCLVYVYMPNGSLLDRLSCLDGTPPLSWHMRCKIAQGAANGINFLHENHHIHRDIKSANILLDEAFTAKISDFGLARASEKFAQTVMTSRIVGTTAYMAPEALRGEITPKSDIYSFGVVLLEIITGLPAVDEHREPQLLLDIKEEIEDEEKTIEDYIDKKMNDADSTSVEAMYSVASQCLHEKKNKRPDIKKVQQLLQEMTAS
Put plainly: IRAK4 enzymatic assay (ADP-Glo luminescence). The note with it: purified human recombinant His-TEV-IRAK4 (1-460), ATP 2 μM. Format: biochemical. How it is done:
IRAK4 is a human purified recombinant enzyme (His-TEV-IRAK4 (1-460)).
In this assay, IRAK4 hydrolyses ATP, autophosphorylates and phosphorylates a Serine/Threonine generic peptidic substrate (STK: 61ST1BLC from CisBio International). Measurement of IRAK-4 inhibition is performed in 384-well format based on a luminescence assay (ADP-Glo™ Kinase Assay from Promega). Purified human recombinant IRAK4 (0.3 μg/ml) and serial diluted compounds in DMSO (range of concentration from 10 μM to 0.5 nM) or controls (1% DMSO) are incubated for 15 minutes at RT in assay buffer containing 50 mM Hepes pH 7.0, Fatty acid-free BSA 0.1%, Dithiothreitol (DTT) 2 mM, MgCl2 10 mM, EGTA 0.5 mM, Triton X-100 0.01%, MnCl2 5 mM. The kinase reaction is then initiated by the addition of ATP (2 μM) and the peptidic substrate STK1-biotin peptide (300 nM). After 2 hours of incubation at RT, the reaction is stopped and the unconsumed ATP depleted by the addition of ADP-Glo™ Reagent according to supplier instructions. After 40 minutes of incubation at RT, the Kinase Detection Reagent is then added to the assay plate according to supplier instructions. After 20 minutes of incubation at RT, the luminescence signal is measured with a plate-reading luminometer (PerkinElmer Envision or equivalent reader).
(In general: ADP-Glo turns the ADP formed in a reaction into a luminescent signal.)

T1 sequence (P51617 194-712): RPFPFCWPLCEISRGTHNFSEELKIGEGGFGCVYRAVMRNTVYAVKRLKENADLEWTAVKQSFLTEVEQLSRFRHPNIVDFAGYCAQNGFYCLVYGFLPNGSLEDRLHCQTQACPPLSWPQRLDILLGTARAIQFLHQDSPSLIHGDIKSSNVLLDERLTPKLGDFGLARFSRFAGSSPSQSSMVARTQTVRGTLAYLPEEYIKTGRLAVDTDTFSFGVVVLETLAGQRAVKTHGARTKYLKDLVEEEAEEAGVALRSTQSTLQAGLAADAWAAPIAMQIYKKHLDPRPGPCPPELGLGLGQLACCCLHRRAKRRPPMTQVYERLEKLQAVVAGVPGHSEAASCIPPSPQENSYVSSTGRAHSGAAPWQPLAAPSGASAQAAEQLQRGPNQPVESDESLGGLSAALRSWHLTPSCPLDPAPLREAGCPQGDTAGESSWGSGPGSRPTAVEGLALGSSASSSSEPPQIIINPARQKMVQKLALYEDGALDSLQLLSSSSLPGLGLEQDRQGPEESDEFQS

Take `O=C(/N=c1\[nH]c2cc(N3CCOCC3=O)ccc2n1[C@H]1CCCC[C@H]1CO)c1cccc(C(F)(F)F)c1` (racemic) [Compound 116, rac-(E)-N-(1-((1S,2R)-2-(hydroxymethyl)cyclohexyl)-5-(3-oxomorpholino)-1H-benzo[d]imidazol-2(3H)-ylidene)-3-(trifluoromethyl)benzamide]: the values for the IC50 on IRAK1 and at IRAK4 were greater than 1000 nM and 100 to 1000 nM, respectively.
The matching figures for `O=C(/N=c1\[nH]c2cc(N3CCOCC3=O)ccc2n1[C@H]1CCCC[C@H]1CO)c1cccc(C(F)F)c1` (racemic) [Compound 117, rac-(E)-3-(difluoromethyl)-N-(1-((1S,2R)-2-(hydroxymethyl)cyclohexyl)-5-(3-oxomorpholino)-1H-benzo[d]imidazol-2(3H)-ylidene)benzamide]: 100 to 1000 nM and 100 to 1000 nM.
`O=C(/N=c1\[nH]c2cc(N3CCOCC3=O)ccc2n1[C@H]1CCCC[C@@H]1CO)c1cccc(C(F)(F)F)c1` (racemic) [Compound 118, rac-(E)-N-(1-((1S,2S)-2-(hydroxymethyl)cyclohexyl)-5-(3-oxomorpholino)-1H-benzo[d]imidazol-2(3H)-ylidene)-3-(trifluoromethyl)benzamide]: the IC50 at IRAK1 was 100 to 1000 nM; at IRAK4, no more than 100 nM.
The matching figures for `O=C(/N=c1\[nH]c2cc(N3CCOCC3=O)ccc2n1[C@H]1CCCC[C@@H]1CO)c1cccc(C(F)F)c1` (racemic) [Compound 119, rac-(E)-3-(difluoromethyl)-N-(1-((1S,2S)-2-(hydroxymethyl)cyclohexyl)-5-(3-oxomorpholino)-1H-benzo[d]imidazol-2(3H)-ylidene)benzamide]: 100 to 1000 nM and no more than 100 nM.
The like results for `CCC(CCO)n1/c(=N/C(=O)c2cccc(C(F)(F)F)c2)[nH]c2cc(N3CCOCC3=O)ccc21` (racemic) [Compound 124, rac-(E)-N-(1-(1-hydroxypentan-3-yl)-5-(3-oxomorpholino)-1H-benzo[d]imidazol-2(3H)-ylidene)-3-(trifluoromethyl)benzamide] were, in that order, greater than 1000 nM and 100 to 1000 nM.
For the molecule `CCC(CCO)n1/c(=N/C(=O)c2cccc(C(F)F)c2)[nH]c2cc(N3CCOCC3=O)ccc21` (racemic) [Compound 125, rac-(E)-3-(difluoromethyl)-N-(1-(1-hydroxypentan-3-yl)-5-(3-oxomorpholino)-1H-benzo[d]imidazol-2(3H)-ylidene)benzamide], the IC50 was greater than 1000 nM at IRAK1 and no more than 100 nM on IRAK4.
For `O=C(/N=c1\[nH]c2cc(N3CCCOC3=O)ccc2n1[C@@H]1C[C@H]1CO)c1cccc(C(F)(F)F)c1` (racemic) [Compound 144, rac-(E)-N-(1-((1R,2R)-2-(hydroxymethyl)cyclopropyl)-5-(2-oxo-1,3-oxazinan-3-yl)-1H-benzo[d]imidazol-2(3H)-ylidene)-3-(trifluoromethyl)benzamide], the IC50 at IRAK1 is greater than 1000 nM; on IRAK4, no more than 100 nM.
The like results for `O=C(/N=c1\[nH]c2cc(N3CCCNC3=O)ccc2n1CCCO)c1cccc(C(F)(F)F)c1` [Compound 1, (E)-N-(1-(3-hydroxypropyl)-5-(2-oxotetrahydropyrimidin-1(2H)-yl)-1H-benzo[d]imidazol-2(3H)-ylidene)-3-(trifluoromethyl)benzamide] were, in that order, 100 to 1000 nM and no more than 100 nM.
With `O=C(/N=c1\[nH]c2cc(N3CCOCC3=O)ccc2n1CCCO)c1cccc(-n2cnnc2)c1` [Compound 2, (E)-N-(1-(3-hydroxypropyl)-5-(3-oxomorpholino)-1H-benzo[d]imidazol-2(3H)-ylidene)-3-(4H-1,2,4-triazol-4-yl)benzamide], the IC50 at IRAK1 and on IRAK4 was 100 to 1000 nM in each case.
Regarding `N#Cc1cccc(C(=O)/N=c2\[nH]c3cc(N4CCOCC4=O)ccc3n2CCCO)c1` [Compound 3, (E)-3-cyano-N-(1-(3-hydroxypropyl)-5-(3-oxomorpholino)-1H-benzo[d]imidazol-2(3H)-ylidene)benzamide], the IC50 at IRAK1 is 100 to 1000 nM; on IRAK4, no more than 100 nM.
The matching figures for `O=C(/N=c1\[nH]c2cc(N3CCOCC3=O)ccc2n1CCCO)c1cccc(C(F)(F)F)c1F` [Compound 4, (E)-2-fluoro-N-(1-(3-hydroxypropyl)-5-(3-oxomorpholino)-1H-benzo[d]imidazol-2(3H)-ylidene)-3-(trifluoromethyl)benzamide]: 100 to 1000 nM and no more than 100 nM.
In the case of `O=C(/N=c1\[nH]c2cc(N3CCOCC3=O)ccc2n1CCCO)c1ccc(F)c(C(F)(F)F)c1` [Compound 5, (E)-4-fluoro-N-(1-(3-hydroxypropyl)-5-(3-oxomorpholino)-1H-benzo[d]imidazol-2(3H)-ylidene)-3-(trifluoromethyl)benzamide], the IC50 at IRAK1 and on IRAK4 was no more than 100 nM each time.
Turning to `O=C(/N=c1\[nH]c2cc(N3CCOCC3=O)ccc2n1CCCO)c1cccc(OC(F)F)c1` [Compound 6, (E)-3-(difluoromethoxy)-N-(1-(3-hydroxypropyl)-5-(3-oxomorpholino)-1H-benzo[d]imidazol-2(3H)-ylidene)benzamide], the IC50 was 100 to 1000 nM on IRAK1 and no more than 100 nM on IRAK4.
The like results for `O=C(/N=c1\[nH]c2cc(N3CCOCC3=O)ccc2n1CCCO)c1cccc(OC(F)(F)F)c1` [Compound 7, (E)-N-(1-(3-hydroxypropyl)-5-(3-oxomorpholino)-1H-benzo[d]imidazol-2(3H)-ylidene)-3-(trifluoromethoxy)benzamide] were, in that order, 100 to 1000 nM and no more than 100 nM.
Take `O=C(/N=c1\[nH]c2cc(N3CCOC3=O)ccc2n1CCCO)c1cccc(C(F)(F)F)c1` [Compound 8, (E)-N-(1-(3-hydroxypropyl)-5-(2-oxooxazolidin-3-yl)-1H-benzo[d]imidazol-2(3H)-ylidene)-3-(trifluoromethyl)benzamide]: the IC50 on IRAK1 was 100 to 1000 nM; on IRAK4, no more than 100 nM.
`O=C(/N=c1\[nH]c2cc(N3CCOCC3=O)ccc2n1CC1(CO)CC1)c1cccc(C(F)(F)F)c1` [Compound 9, (E)-N-(1-((1-(hydroxymethyl)cyclopropyl)methyl)-5-(3-oxomorpholino)-1H-benzo[d]imidazol-2(3H)-ylidene)-3-(trifluoromethyl)benzamide]: the values for the half-maximal inhibitory concentration (IC50) on IRAK1 and at IRAK4 were 100 to 1000 nM and no more than 100 nM, respectively.
As to `C[C@H](CCO)n1/c(=N/C(=O)c2cccc(C#N)c2)[nH]c2cc(N3CCOCC3=O)ccc21` [Compound 10, (R,E)-3-cyano-N-(1-(4-hydroxybutan-2-yl)-5-(3-oxomorpholino)-1H-benzo[d]imidazol-2(3H)-ylidene)benzamide], the IC50 is 100 to 1000 nM at IRAK1 and no more than 100 nM at IRAK4.
The like results for `N#Cc1cccc(C(=O)/N=c2\[nH]c3cc(N4CCOC4=O)ccc3n2CCCO)c1` [Compound 11, (E)-3-cyano-N-(1-(3-hydroxypropyl)-5-(2-oxooxazolidin-3-yl)-1H-benzo[d]imidazol-2(3H)-ylidene)benzamide] were, in that order, 100 to 1000 nM and no more than 100 nM.
The matching figures for `N#Cc1cccc(C(=O)/N=c2\[nH]c3cc(N4CCOCC4=O)ccc3n2CC2(CO)CC2)c1` [Compound 12, (E)-3-cyano-N-(1-((1-(hydroxymethyl)cyclopropyl)methyl)-5-(3-oxomorpholino)-1H-benzo[d]imidazol-2(3H)-ylidene)benzamide]: no more than 100 nM and no more than 100 nM.

What is called IC50 is the concentration that gives 50% inhibition.

Source of the values: patent US10059701B2 (Merck Patent GmbH, priority 2015, dated 2018).
